From PubChem BioAssay (NCI)
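Exposure lasted 48 hours, with cells grown in 96-well plates and compounds tested at five concentrations. Abbreviation: GI50, concentration required for 50% inhibition of growth. TGI denotes the concentration required for complete inhibition of growth.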

What was measured:
Assay in all cases: DTP human tumour cell line panel, 48 h
[1] = test system: 786-0 renal
[2] = test system: A498 renal
[3] = test system: A549 NSCLC
[4] = test system: ACHN renal
[5] = test system: BT-549 breast
[6] = test system: CAKI-1 renal
[7] = test system: CCRF-CEM leukemia
[8] = test system: COLO 205 colon
[9] = test system: DU-145 prostate
[10] = test system: EKVX NSCLC
[11] = test system: HCC-2998 colon
[12] = test system: HCT-116 colon
[13] = test system: HCT-15 colon
[14] = test system: HL-60(TB) leukemia
[15] = test system: HOP-62 NSCLC
[16] = test system: HOP-92 NSCLC
[17] = test system: HS 578T breast
[18] = test system: HT29 colon
[19] = test system: IGROV1 ovarian
[20] = test system: K-562 leukemia
[21] = test system: KM12 colon
[22] = test system: LOX IMVI melanoma
[23] = test system: M14 melanoma
[24] = test system: MALME-3M melanoma
[25] = test system: MCF7 breast
[26] = test system: MDA-MB-435
[27] = test system: MDA-MB-468 breast
[28] = test system: MOLT-4 leukemia
[29] = test system: NCI-H226 lung
[30] = test system: NCI-H23 lung
[31] = test system: NCI-H460 lung
[32] = test system: NCI-H522 lung
[33] = test system: NCI/ADR-RES ovarian
[34] = test system: OVCAR-3 ovarian
[35] = test system: OVCAR-4 ovarian
[36] = test system: OVCAR-5 ovarian
[37] = test system: OVCAR-8 ovarian
[38] = test system: PC-3 prostate
[39] = test system: RPMI-8226 leukemia
[40] = test system: RXF 393 renal
[41] = test system: SF-268 CNS
[42] = test system: SF-295 CNS
[43] = test system: SF-539 CNS
[44] = test system: SK-MEL-28 melanoma
[45] = test system: SK-MEL-5 melanoma
[46] = test system: SK-OV-3 ovarian
[47] = test system: SN12C renal
[48] = test system: SNB-19 CNS
[49] = test system: SR leukemia
[50] = test system: SW-620 colon
[51] = test system: T-47D breast
[52] = test system: TK-10 renal
[53] = test system: U251 CNS
[54] = test system: UACC-257 melanoma
[55] = test system: UACC-62 melanoma

In the case of `O=C(Nc1nc2ccc([N+](=O)[O-])cc2s1)Nc1ccccc1F`, the GI50 [1] is reported as 17.7 µM, the TGI [1] is reported as greater than 100 µM and the GI50 [2] is reported as 4.88 µM. For the same compound, the TGI [2] was 36.7 µM, the GI50 [3] was 7.4 µM and the TGI [3] was 28.5 µM. It also gave a GI50 [4] of 8.13 µM, a TGI [4] of 95.7 µM and a GI50 [5] of 11.9 µM. For the same compound, the TGI [5] was 46.5 µM, the GI50 [6] was 5.32 µM and the TGI [6] was 73.2 µM. The GI50 [7] was 5.42 µM, the TGI [7] was 47.9 µM and the GI50 [8] was 15.1 µM. The TGI [8] was 30.4 µM, the GI50 [9] was 7.11 µM and the TGI [9] was greater than 100 µM. For the same compound, the GI50 [10] was 4.37 µM, the TGI [10] was 55.5 µM and the GI50 [11] was 7.58 µM. It also gave a TGI [11] of 34.1 µM, a GI50 [12] of 9.97 µM and a TGI [12] of 39.8 µM. It also gave a GI50 [13] of 4.93 µM, a TGI [13] of 33.9 µM and a GI50 [14] of 4.31 µM. The TGI [14] was 22 µM, the GI50 [15] was 17.2 µM and the TGI [15] was 56.3 µM. It also gave a GI50 [16] of 2.83 µM, a TGI [16] of 8.28 µM and a GI50 [17] of 5.89 µM. The TGI [17] was 59 µM, the GI50 [18] was 23.6 µM and the TGI [18] was greater than 100 µM. It also gave a GI50 [19] of 4.57 µM, a TGI [19] greater than 100 µM and a GI50 [20] of 4.99 µM. The TGI [20] was 25 µM, the GI50 [21] was 5.33 µM and the TGI [21] was 52.8 µM. It also gave a GI50 [22] of 10.7 µM, a TGI [22] of 58.8 µM and a GI50 [23] of 19.1 µM. It also gave a TGI [23] greater than 100 µM, a GI50 [24] of 4.17 µM and a TGI [24] of 30.9 µM. For the same compound, the GI50 [25] was 5.68 µM, the TGI [25] was 35.3 µM and the GI50 [26] was 5.46 µM. For the same compound, the TGI [26] was greater than 100 µM, the GI50 [27] was 3.2 µM and the TGI [27] was 19.2 µM. For the same compound, the GI50 [28] was 3.77 µM, the TGI [28] was 15.5 µM and the GI50 [29] was 13.4 µM. The TGI [29] was greater than 100 µM, the GI50 [30] was 3.6 µM and the TGI [30] was 21.6 µM. It also gave a GI50 [31] of 4.66 µM, a TGI [31] of 26.5 µM and a GI50 [32] of 3.49 µM. It also gave a TGI [32] of 22.6 µM, a GI50 [33] of 7.98 µM and a TGI [33] of 32.4 µM. It also gave a GI50 [34] of 3.99 µM, a TGI [34] of 46.6 µM and a GI50 [35] of 5.21 µM. The TGI [35] was greater than 100 µM, the GI50 [36] was 22 µM and the TGI [36] was 80.8 µM. It also gave a GI50 [37] of 15.8 µM, a TGI [37] of 50.4 µM and a GI50 [38] of 6.83 µM. For the same compound, the TGI [38] was 51 µM, the GI50 [39] was 3.45 µM and the TGI [39] was 16.5 µM. For the same compound, the GI50 [40] was 13.3 µM, the TGI [40] was 47.3 µM and the GI50 [41] was 8.41 µM. The TGI [41] was greater than 100 µM, the GI50 [42] was 11.4 µM and the TGI [42] was 32.1 µM. It also gave a GI50 [43] of 8.33 µM, a TGI [43] of 26.9 µM and a GI50 [44] of 5.79 µM. It also gave a TGI [44] of 83.8 µM, a GI50 [45] of 2.64 µM and a TGI [45] of 7.35 µM. The GI50 [46] was 5.9 µM, the TGI [46] was 46.1 µM and the GI50 [47] was 4.65 µM. The TGI [47] was 62.3 µM, the GI50 [48] was 6.35 µM and the TGI [48] was greater than 100 µM. For the same compound, the GI50 [49] was 3.31 µM, the TGI [49] was 17.4 µM and the GI50 [50] was 12.2 µM. For the same compound, the TGI [50] was greater than 100 µM, the GI50 [51] was 3.06 µM and the TGI [51] was 22.7 µM. The GI50 [52] was 8.78 µM, the TGI [52] was 83 µM and the GI50 [53] was 7.41 µM. The TGI [53] was 35.7 µM, the GI50 [54] was 6.08 µM and the TGI [54] was 36.9 µM. The GI50 [55] was 3.77 µM and the TGI [55] was greater than 100 µM.
